Measured values published in patent publication US20190307886A1, “A CO-AMORPHOUS FORM OF A SUBSTANCE AND A PROTEIN” (University of Copenhagen, priority 2016, published 2019).

Tests used:
Format in all cases: physicochemical
[1] = Thermogravimetric analysis for measurement of residual moisture; details: Table 1a; amorphous drugs and spray dried forms with WPI, WPH, WPI components, digested WPI, PVP
Description: Thermogravimetric analysis for measurement of residual moisture:
Thermogravimetric analysis was performed on a TGA Discovery instrument (TA Instruments, New Castle, USA). Samples of 10 mg were placed in a platinum pan and sealed with a lid and heated from 25 to 300° C. at 10° C./min. Resulting weight-temperature diagrams were analyzed using Trios software (TA Instruments, New Castle, USA) to calculate the weight loss between 25 and 150° C.

[2] = Physical stability on storage over silica gel at room temperature, XRPD; details: recrystallization shown by XRPD
Description: The molecular interactions of the drug substance-WPI/WPH mixtures were investigated by XRPD using an X'Pert PANanalytical PRO X-ray diffractometer (PANanalytical, Almelo, The Netherlands) with Cukα radition: 1.54187 Å, current: 40 mA and acceleration voltage: 45 kV. Each of the co-amorphous forms obtained either by spray drying or ball milling were scanned (scan rate of 0.067° 2θ/s and step size of 0.026°) with reflectance mode between 2° and 35° 2θ. The collected data was analysed using X'Pert PANanalytical Collector software (PANanalytical, Almelo, The Netherlands).
All samples were stored in a desiccator over silica gel (0% relative humidity) at room temperature and a physical stability study was performed for all SD samples. Each sample was analyzed by XRPD at day 0 and subsequently once every month thereafter.

[3] = Intrinsic dissolution rate from powder compacts; details: for y (mg cm^−2 min^−1), line equation of intrinsic dissolution testing; slope = intrinsic dissolution rate: Table 2a, 0.1 M phosphate buffer pH 7.2, 37° C., 50 rpm; for intrinsic dissolution rate (IDR): phosphate buffer pH 7.2, 37° C.
Description: The intrinsic dissolution rate (IDR) was determined from powder compacts obtained with a hydraulic press (PerkinElmer, Hydraulische Presse Model IXB-102-9, Ueberlingen, Germany). Ball-milled powders of pure drug and spray dried powders of drug-protein mixtures were compressed into tablets. Tablets of 150 mg were directly compressed into stainless steel cylinders that served as intrinsic dissolution sample holders at a pressure of 124.9 MPa for 45 secs. […] These cylinders were then placed in 900 ml of 0.1 M phosphate buffer (pH 7.2, 37° C.) dissolution medium and stirred using a magnetic bar at a rotation speed of 50 rpm. At predetermined time points (1, 5, 10, 15, 20, 25 and 30 min, some IDRs were only determined up to 20 min), 5 ml aliquots were withdrawn and immediately replaced with dissolution buffer. The obtained samples were then analyzed using UV spectrophotometer (see below). All dissolution experiments were conducted in triplicate.

[4] = Powder dissolution (USP II apparatus)
Description: Powder dissolution was performed in USP type II apparatus. […] The dissolution paddles were rotated at 50 rpm […] taking samples out at 1, 3, 5, 7, 10, 15, 20, 25, 30, 35, 40, 50, 60 and 120 mins. Each sample of 5 ml was taken out and replaced by dissolution medium. To separate powders from medium, the samples were filtered through a 0.45 μm syringe filter (Qmax, Frisinette ApS) and the first 2 ml was discarded to minimize losses due to adsorption. The samples were examined using UV Vis to analyze the drug concentration.

SMILES: NS(=O)(=O)c1cc(C(=O)O)c(NCc2ccco2)cc1Cl [A FUR, furosemide]
- TGA (residual moisture content in %) [1]: 3.6 ± 0.3%
- time found to be stable (in words) [2]: less than a week

SMILES: COc1ccccc1OCCNCC(O)COc1cccc2[nH]c3ccccc3c12 (centres unmarked) [C CAR, carvedilol]
- y (mg cm^−2 min^−1), line equation of intrinsic dissolution testing; slope = intrinsic dissolution rate [3]: y = 0.0117x + 2.8082 mg cm^−2 min^−1
- intrinsic dissolution rate (IDR) ([3]; listed as crystalline CAR): 0.0117 mg cm^−2 min^−1

SMILES: COc1ccccc1OCCNCC(O)COc1cccc2[nH]c3ccccc3c12 (centres unmarked) [A CAR, carvedilol]
- y (mg cm^−2 min^−1), line equation of intrinsic dissolution testing; slope = intrinsic dissolution rate [3]: y = 0.0214x + 2.973 mg cm^−2 min^−1
- intrinsic dissolution rate (IDR) ([3]; listed as ball milled amorphous CAR): 0.0214 mg cm^−2 min^−1
- fold increase in IDR compared to crystalline CAR ([3]; vs C CAR): 1.8 fold
- TGA (residual moisture content in %) [1]: 3.1 ± 0.3%
- time found to be stable (in words) [2]: less than a week

SMILES: COc1ccc2c(c1)c(CC(=O)O)c(C)n2C(=O)c1ccc(Cl)cc1 [A IND, indomethacin]
- powder dissolution (comparison in words) ([4]; USP type II, 200 mg in 50 ml phosphate buffer pH 7.2, 50 rpm): more dissolution than the PM IND-WPI
- solubility of IND in its amorphous state ([4]; phosphate buffer pH 7.2, vs crystalline IND): more than double the value crystalline IND
- y (mg cm^−2 min^−1), line equation of intrinsic dissolution testing; slope = intrinsic dissolution rate [3]: y = 0.1333x + 4.5538 mg cm^−2 min^−1
- intrinsic dissolution rate (IDR) ([3]; listed as amorphous ball milled IND): 0.1333 mg cm^−2 min^−1
- TGA (residual moisture content in %) [1]: 3.2 ± 0.4%
- time found to be stable (in words) [2]: less than a week

SMILES: COc1ccc2c(c1)c(CC(=O)O)c(C)n2C(=O)c1ccc(Cl)cc1 [C IND, indomethacin]
- y (mg cm^−2 min^−1), line equation of intrinsic dissolution testing; slope = intrinsic dissolution rate [3]: y = 0.0787x + 4.006 mg cm^−2 min^−1
- intrinsic dissolution rate (IDR) ([3]; listed as crystalline IND): 0.0787 mg cm^−2 min^−1

SMILES: CC(=O)Nc1ccc(O)cc1 [C PAR, paracetamol]
- y (mg cm^−2 min^−1), line equation of intrinsic dissolution testing; slope = intrinsic dissolution rate [3]: y = 0.1632x + 2.3462 mg cm^−2 min^−1
- intrinsic dissolution rate (IDR) ([3]; listed as crystalline PAR): 0.1632 mg cm^−2 min^−1

SMILES: CC(=O)Nc1ccc(O)cc1 [A PAR, paracetamol]
- y (mg cm^−2 min^−1), line equation of intrinsic dissolution testing; slope = intrinsic dissolution rate [3]: y = 0.201x + 4.5947 mg cm^−2 min^−1
- intrinsic dissolution rate (IDR) ([3]; listed as ball milled amorphous PAR): 0.201 mg cm^−2 min^−1
- fold increase in IDR compared to crystalline PAR ([3]; vs C PAR): 1.2 fold
- time found to be stable (in words) [2]: less than a week
